In paper PMC8944748, “Kojic Acid Showed Consistent Inhibitory Activity on Tyrosinase from Mushroom and in Cultured B16F10 Cells Compared with Arbutins” (Antioxidants, 2022):
Entries after “also recorded” stand apart in the source; their conditions may differ.

Columns and labels:
[1] = tested on: monophenolase of mushroom tyrosinase (MTYR); assay: MTYR monophenolase activity assay (L-tyrosine as substrate, dopachrome at 475 nm); type: biochemical; settings: for lag time for monophenolase activity: progress curves
Description: L-tyrosine and L-DOPA were used as the substrates to test the monophenolase activity and diphenolase activity, respectively. Freshly prepared tyrosinase and substrate solutions were used in this experiment. For air-saturated solutions, a temperature of 25 °C and pH of 6.8 was maintained throughout the study. All assays were performed in triplicate. In flat-bottom 96-well plates, the reaction media was 200 μL. […] Once the substrate was added in reaction system, the formation of dopachrome was immediately measured at 475 nm for 30 min at 1 min intervals. The concentrations of kojic acid were 7.5, 15, 30, 60, and 120 μM. The concentrations of α-arbutin were 480, 960, 2000, 4000, and 8000 μM. The concentrations of β-arbutin were 240, 480, 960, 2000, and 4000 μM. […] These concentrations were used to determine the progress curves and inhibition rates of monophenolase. […] In the formula, 'negative control' is the treatment without sample; 'blank control' is the treatment without sample and substrate; 'sample' is the treatment including all solutions; and 'sample control' is the treatment without substrate but including sample. If the inhibition rate was negative, it meant the tyrosinase was activated. The activation rate was the absolute value of inhibition rate.

[2] = tested on: diphenolase of mushroom tyrosinase (MTYR); assay: MTYR diphenolase activity assay (L-DOPA as substrate, dopachrome at 475 nm); type: biochemical; settings: for effect on diphenolase activity of MTYR / lag time on diphenolase activity: L-DOPA; for effect on diphenolase activity of MTYR: 30-8000 µM; for lag time on diphenolase activity: progress curves
Description: L-tyrosine and L-DOPA were used as the substrates to test the monophenolase activity and diphenolase activity, respectively. Freshly prepared tyrosinase and substrate solutions were used in this experiment. For air-saturated solutions, a temperature of 25 °C and pH of 6.8 was maintained throughout the study. All assays were performed in triplicate. […] Additionally, three concentrations of every compound were selected to present progress curves. Once the substrate was added in reaction system, the formation of dopachrome was immediately measured at 475 nm for 25 min at 1 min intervals.

[3] = target: monophenolase of mushroom tyrosinase (MTYR); assay: Kinetic analysis of MTYR monophenolase (Lineweaver-Burk plot); type: biochemical; settings: for Kinetic analysis on monophenolase Inhibition type: Lineweaver-Burk plot; for Kinetic analysis on monophenolase Km / Kinetic analysis on monophenolase Vmax: change with increasing compound molarity
Description: (§1) The concentration of enzyme was fixed, while the concentration of substrate was changed. […] When determining inhibition type of monophenolase, the concentration of kojic acid were 7.5, 30, and 120 µM. […] The concentrations of deoxyarbutin were 3.75, 15, and 60 µM. […] The concentrations of deoxyarbutin were 7.5, 30, and 120 µM. Once the substrate was added to the reaction system, the formation of dopachrome was immediately detected at 475 nm once every minute for 30 min. Steady state rate (V0) was defined as the slope of the linear range of progress curves, also called the dopachrome accumulation curve. The Km (substrate concentration that yield a half-maximal velocity) and Vmax (maximum velocity) of tyrosinase were determined by Michaelis–Menten equation. Lineweaver–Burk plot was used to display the data.

[4] = target: diphenolase of mushroom tyrosinase (MTYR); assay: Kinetic analysis of MTYR diphenolase (Lineweaver-Burk plot); type: biochemical; settings: for Kinetic analysis on diphenolase Inhibition type: Lineweaver-Burk plot; for Kinetic analysis on diphenolase Km / Kinetic analysis on diphenolase Vmax: change with increasing compound molarity
Description: as §1

[5] = tested on: T1, B16F10 cellular tyrosinase (BTYR); assay: B16F10 cellular tyrosinase (BTYR) activity, L-DOPA oxidase activity of lysate after treatment of cells; type: cell-based, mouse; settings: 48 h, percentage of control 2
T1 construct: The supernatant was used as the BTYR solution; endogenous in cells; host or cells: B16F10 mouse melanoma cells, α-MSH stimulated
Description: (§2) Measurement of B16F10 cellular tyrosinase (BTYR) activity, melanin content, and cell viability were the same as our previous study. Blank group (control 1) was the treatment containing cells and medium. Control group (control 2) was the treatment containing cells, medium, and α-MSH. Compound groups were the treatments containing cells, medium, α-MSH, and related compounds. Experiments were performed at least in triplicate.
(§3) B16F10 mouse malignant melanoma cell line from Stem Cell Bank (Chinese Academy of Sciences, Shanghai, China) were cultured in DMEM supplemented with 10% fetal bovine serum (FBS; Gibco, Grand Island, NV, USA) and antibiotics (100 U/mL penicillin and 100μg/mL streptomycin) in a humidified atmosphere of 5% CO2 at 37 °C. B16F10 cells at the exponential phase were adjusted for cell density and used in the following assay.
The BTYR activity was measured as the L-DOPA oxidase activity. B16F10 cells were seeded and incubated for 24 h in 24-well cell culture plates. Then, they were treated with 50 µL of 1 µM α-MSH and different molarities of compounds for another 48 h. After being washed twice with cold D-PBS and lysed with a lysis buffer (P0013J) containing 1% Triton X-100 for 30 min at −20 °C, the lysates were centrifuged at 12,000 rpm for 10 min at 4 °C. The supernatant was used as the BTYR solution. The reaction mixture, containing 50 μL of cell lysate supernatant and 50 μL of 5 mM L-DOPA, was incubated at 37 °C for 1 h and the level of dopachrome formation was measured spectrophotometrically at 475 nm. Lysis buffer was used as the control. The BTYR activity was calculated as a percentage of the control.

B16F10 cells [6] = assay: Cellular melanin content of B16F10 cells stimulated by α-MSH; type: cell-based, mouse; settings: 48 h, percentage of control 2
Description: as §2, §3
Briefly, B16F10 cells were treated with compounds as in Section 2.4.2. After being washed with PBS and dissolved in 1 M NaOH containing 10% DMSO for 1 h at 80 °C, the cell lysates were centrifuged at 12,000 rpm for 10 min. 150 μL of supernatant was transferred to 96-well plates and the absorbance was measured at 405 nm. The melanin content is expressed as a percentage of the control.

[7] = Cell viability of B16F10 cells, CCK-8 assay; type: cell-based, mouse; settings: mouse, B16F10 melanoma cells, percentage of the control
Description: (§4) Blank group (control 1) was the treatment containing cells and medium. […] Compound groups were the treatments containing cells, medium, α-MSH, and related compounds. Experiments were performed at least in triplicate. […] B16F10 cells at the exponential phase were adjusted for cell density and used in the following assay. […] Cells were seeded into 96-well plates at a density of 1 × 10^4 cells/well and incubated for 24 h. Then, the cells were treated with different concentrations of compounds for 48 h. After rinsing once with D-PBS, 100 uL DMEM containing 10% CCK-8 was added and incubated for another 1 h. The absorbance values of the solution at 450 nm were measured. The cell viability is expressed as a percentage of the control.

B16F10 cells [8] = assay: Cell viability of B16F10 cells, CCK-8 assay; type: cell-based, mouse; settings: 43.8 µM, 48 h, percentage of the control
Description: as §4

[9] = tested on: diphenolase activity of MTYR; set-up: method as in PMID 7765966; settings: α-arbutin below 10 mM; cited from earlier work
[10] = tested on: tyrosinase diphenolase from B16 mouse melanoma cells; set-up: method as in PMID 7765966; settings: cited from earlier work
MTYR monophenolase = target: MTYR monophenolase; set-up: method as in PMID 28493937; settings: read-out: IC50 on the inhibitory activity of MTYR monophenolase; cited from earlier work
[11] = tested on: three-dimensional human skin model; set-up: method as in PMID 15056856; settings: cited from earlier work

| SMILES | lag time for monophenolase activity ([1]; L-tyrosine) | effect on diphenolase activity of MTYR [2] | lag time on diphenolase activity [2] | Kinetic analysis on monophenolase Inhibition type [3] | Kinetic analysis on monophenolase Km [3] | Kinetic analysis on monophenolase Vmax [3] | Kinetic analysis on diphenolase Inhibition type [4] | Kinetic analysis on diphenolase Km [4] | Kinetic analysis on diphenolase Vmax [4] | tyrosinase activity of B16F10 cells stimulated by α-MSH ([5]; 43.8 µM) [%] | tyrosinase activity of B16F10 cells stimulated by α-MSH ([5]; 87.5 µM) [%] | tyrosinase activity of B16F10 cells stimulated by α-MSH ([5]; 175 µM) [%] | tyrosinase activity of B16F10 cells stimulated by α-MSH ([5]; 350 µM) [%] | tyrosinase activity of B16F10 cells stimulated by α-MSH ([5]; 700 µM) [%] | melanin content of B16F10 cells stimulated by α-MSH (B16F10 cells [6]; 43.8 µM) [%] | melanin content of B16F10 cells stimulated by α-MSH (B16F10 cells [6]; 87.5 µM) [%] | melanin content of B16F10 cells stimulated by α-MSH (B16F10 cells [6]; 175 µM) [%] | melanin content of B16F10 cells stimulated by α-MSH (B16F10 cells [6]; 350 µM) [%] | melanin content of B16F10 cells stimulated by α-MSH (B16F10 cells [6]; 700 µM) [%] | viability at 48 h, 43.8 µM [7] [%] | also measured |
| --- | --- | --- | --- | --- | --- | --- | --- | --- | --- | --- | --- | --- | --- | --- | --- | --- | --- | --- | --- | --- | --- |
| Oc1ccc(OC2CCCCO2)cc1 (centres unmarked) [deoxyarbutin] | extended in a molarity-dependent manner | inhibited tyrosinase activity in a dose-dependent manner | no lag time | did not influence monophenolase activity | remained constant | remained constant | competitive inhibitor | increased | remained constant | 40 ± 2 | 17 ± 2 | 8 ± 1 | 3 ± 1 | 3 ± 1 | 67 ± 7 | 46 ± 2 | 37 ± 3 | 23 ± 2 | 18 ± 2 | 128 ± 14 | effect on monophenolase activity of MTYR (slope of the linear range of the kinetic curve) ([1]; deoxyarbutin 3.75-60 µM, L-tyrosine): could not inhibit monophenolase activity; IC50 ([2]; substrate L-DOPA 8 mM, MTYR 30 U/mL, 25 °C, pH 6.8): > 8 mM; viability at 48 h, 87.5 µM [7]: 71 ± 8%; viability at 48 h, 175 µM [7]: 68 ± 6%; viability at 48 h, 350 µM [7]: 66 ± 4%; viability at 48 h, 700 µM [7]: 30 ± 1%; cell viability of B16F10 cells (B16F10 cells [8]): 128.2 ± 14.02% |
| OC[C@H]1O[C@H](Oc2ccc(O)cc2)[C@H](O)[C@@H](O)[C@@H]1O [α-arbutin] | extended in a molarity-dependent manner | prompted tyrosinase activity in a dose-dependent manner | no lag time | competitive inhibitor | increased | remained constant | uncompetitive activator | increased | increased | 91 ± 4 | 88 ± 4 | 90 ± 5 | 93 ± 5 | 86 ± 5 | 95 ± 11 | 91 ± 5 | 92 ± 3 | 87 ± 5 | 81 ± 3 | 108 ± 5 | IC50 ([1]; substrate L-tyrosine 2 mM, MTYR 300 U/mL, 25 °C, pH 6.8): 6.5 ± 0.137 mM; viability at 48 h, 87.5 µM [7]: 113 ± 7%; viability at 48 h, 175 µM [7]: 118 ± 8%; viability at 48 h, 350 µM [7]: 127 ± 10%; viability at 48 h, 700 µM [7]: 145 ± 14%; effect on diphenolase activity of MTYR [9]: did not inhibit; also recorded: does not inhibit; potency relative to β-arbutin as inhibitor of tyrosinase from B16 mouse melanoma [10]: 10 times; IC50 (MTYR monophenolase): 8 mM; inhibition of melanin synthesis [11]: 60% |
